Earlier results as cited in patent US20130136704A1, “P-MENTHANE-3,8-DIOL ISOMER MIXTURE, COMPOSITION COMPRISING THE SAME, AND PRODUCTS COMPRISING THE MIXTURE OR COMPOSITION” (TAKASAGO INTERNATIONAL CORPORATION, priority 2011, published 2013).

Conditions: Patent Literature 2

concentration of p-menthane-3,8-diol in solution at which it is in a supersaturation state and crystals precipitate: ≥ 60%
Compound: CC1CCC(C(C)(C)O)C(O)C1 (stereo not shown) [p-menthane-3,8-diol]
